Experimental data: patent US20230218654A1, “COMPOSITIONS AND METHODS FOR TREATING HYPERGLYCEMIA IN TYPE-2 DIABETES” (The Board of Regents of the university of Oklahoma, priority 2020, published 2023)
Entries after “also recorded” stand apart in the source; their conditions may differ.

Legend:
[1] = system: skeletal muscle cullin neddylation and AKT phosphorylation; experiment: Western blot of gastrocnemius (skeletal) muscle after acute MLN4924; format: in vivo, mice; settings: chow diet; 60 mg/kg SQ twice
Description: Male C57BL/6J mice on chow diet were treated with 60 mg/kg MLN6924 via subcutaneous (SQ) injection at 5 pm on day 1 and 9 am on day 2. Mice were fasted from 9 am to 3 pm on day 2 and sacrificed. Effect of MLN4924 on gastrocnemius muscle cullin neddylation and AKT phosphorylation was measured by Western blotting.
(§1) Human normal livers (less than 5% steatosis) and histologically confirmed NASH livers were obtained from either the University of Kansas Liver Center or the Liver Tissue Cell Distribution System (LTCDS) at the University of Minnesota. Human and mouse tissue samples were homogenized in 1XRIPA buffer containing 1% SDS and protease inhibitors. After incubation on ice for 1 hour, the samples were centrifugation and supernatant was transferred to a new tube. The protein lysate was mixed with equal volume of 2X laemmli buffer and incubated at 95° C. for 5 minutes and used for SDS-PAGE and immunoblotting. ImageJ software (NIH) was used to determine band intensity.
To further explore the hepatic insulin sensitizing effect of neddylation inhibition in vivo, we administered MLN4924 to chow-fed mice twice via subcutaneous (SQ) injection (5 pm on day 1 and 9 am on day 2) and studied the acute effect of MLN4924. The dose of 60 mg/kg is in line with published literature. […] In addition to liver, skeletal muscle is another organ that quantitatively contribute to plasma glucose homeostasis.

[2] = system: primary mouse hepatocytes; experiment: Western blot of insulin signaling in primary mouse hepatocytes; format: cell-based; settings: 500 nM, 1 h
Description: MLN4924 enhances hepatocyte insulin responsiveness by delaying feedback IRS degradation (related to FIG. 18A). Cells were serum starved for 16 h then pre-treated with 500 nM MLN4924 for 1 h followed by 100 nM insulin stimulation in time course. Blots are representative of 2 independent experiments.
AML12 cells were a generous gift from Dr. Yanqiao Zhang (Northeast Ohio Medical University). AML12 cells were cultured in DMEM medium supplemented with a mixture of insulin-transferrin-selenium (#41400-045, ThermoFisher, Waltham, MA). For experiments, cells were cultured in serum free medium overnight before various treatments were initiated. The siGENOME SMARTpool siRNA and siControl were purchased from Dharmacon, Inc. (Lafayette, CO). The siRNA was transfected with Lipofectamine RNAiMAX reagent in a final concentration of 25 nM recommended by the manufacturer. Primary human hepatocytes and primary mouse hepatocytes were obtained from the Cell Isolation Core at the University of Kansas Medical Center. Treatments were initiated on the same day of isolation and completed within 24 hours.

[3] = system: obese mice; experiment: Hyperinsulinemic-euglycemic clamp study; format: in vivo
Description: A hyperinsulinemic-euglycemic clamp study was conducted in which obese mice were treated with vehicle or MLN4924.

[4] = system: male C57BL/6J mice; experiment: Pyruvate tolerance test (PTT); format: in vivo; settings: 60 mg/kg SQ twice; for blood glucose excursion / hepatic glucose production in PTT: 6 h fast, 60 mg/kg
Description: On the day of testing, mice were fasted for 6 h (from 9am to 3 pm). Mice were then given 2 g/kg sodium pyruvate via IP injection. Blood glucose was measured with an UltraTouch glucometer in time course over a 120-minute period.
Mice were treated with 2 doses of MLN4924 as described. After the second injection at 9 am, mice were fasted for 6 h from 9 am to 3 pm. Mice were injected intraperitoneally […] for PTT, and 0.5 U/kg insulin for ITT. Blood glucose was measured with a OneTouch Ultra glucose meter.

[5] = system: male C57BL/6J mice fed Chow or Western diet; experiment: MLN4924 intervention for 9 weeks in 16-week WD-fed mice (Experimental II); format: in vivo
Description: Chronic MLN4924 treatment attenuates hepatic steatosis in Western diet-fed mice. Male C57BL/6J mice were fed Chow (C) or Western diet (WD) for 16 weeks. MLN4924 treatment (60 mg/kg, SQ, every other day) was initiated after mice were fed WD for 7 weeks as indicated. Control mice were injected with vehicle. After 16 weeks of feeding, mice were fasted from 9 am to 3 pm and euthanized. Scale bar = 125 µm. […]
WT male C57BL/6J mice were purchased from the Jackson Lab (Bar Harbor, ME). Western diet (TD. 88137, Envigo Inc. Indianapolis, IN) contains 42% fat calories and 0.2% cholesterol. Mice were housed in micro-isolator cages with corn cob bedding under 7 am - 7 pm light cycle and 7 pm -7 am dark cycle. MLN4924 was prepared in 10% 2-hydroxypropyl-b-cyclodextrin to a final concentration of 3 mg/ml. All mice were fasted for 6 h from 9 am to 3 pm before euthanasia. All animals received humane care according to the criteria outlined in the “Guide for the Care and Use of Laboratory Animals.” All animal protocols were approved by the Institutional Animal Care and Use Committee at the University of Kansas Medical Center and the University of Oklahoma Health Sciences Center. […]
as §1
Total liver RNA was purified with Trizol (Sigma-Aldrich, St. Louis, MO). Total liver RNA was used in reverse transcription with Oligo dT primer and SuperScript III reverse transcriptase (Thermo Fisher Scientific, Grand Island, NY). Real-time PCR was performed on a Bio-Rad CFX384 Real-time PCR system with iQ SYBR Green Supermix (Bio-rad, Hercules, CA). The comparative CT (Ct) method was used to calculate the relative mRNA expression. The relative mRNA expression was expressed as 2 ^-ΔΔCt with the control group arbitrarily set as “1”. […]

[6] = chronic MLN4924, 60 mg/kg SQ once every 2 days

For NS(=O)(=O)OC[C@@H]1C[C@@H](n2ccc3c(N[C@H]4CCc5ccccc54)ncnc32)C[C@@H]1O [MLN4924, ((1S,2S,4R)-4-(4-((1S)-2,3-dihydro-1H-inden-1-ylamino)-7H-pyrrolo[2,3-d]pyrimidin-7-yl)-2-hydroxycyclopentyl) methyl sulfamate], the “increase of AKT phosphorylation in skeletal muscle” value [1] was “did not”, the “increase of IRS protein abundance in skeletal muscle” value [1] was “did not” and the “inhibition of cullin neddylation in skeletal muscle” value [1] was “did not inhibit cullin neddylation”. The IRS protein abundance ([2]; then 100 nM insulin) was “increased IRS protein abundance”, the “insulin-stimulated AKT activation” value ([2]; then 100 nM insulin) was “increased IRS protein abundance and insulin-stimulated AKT activation” and the insulin signaling desensitization ([2]; then 100 nM insulin in time course) was “significantly delayed cellular insulin desensitization; also recorded: significantly delayed insulin signaling desensitization”. The glucose infusion rate [3] was ~ 30 mg/kg/min, the “plasma insulin level during the clamp procedure” value [3] was ~ 3.75 ng/ml and the “peak blood glucose at 30 minutes post pyruvate challenge” value ([4]; vs vehicle) was “significantly lower”. For the same compound, the “blood glucose excursion / hepatic glucose production in PTT” value ([4]; 4-week WD-fed mice) was “significantly lower”, the “blood glucose excursion / hepatic glucose production in PTT” value ([4]; 4-week chow-fed mice) was “significantly lower; also recorded: significantly reduced hepatic glucose production” and the ALT ([5]; WD-fed mice) was “significantly reduced ALT”. For the same compound, the hepatic fat accumulation ([5]; WD-fed mice) was “significant reduction of hepatic fat accumulation”, the plasma insulin levels ([5]; WD-fed mice) was “not reduced” and the blood glucose ([5]; WD-fed mice, intervention for 9 weeks) was “completely normalized blood glucose”. For the same compound, the liver histology ([5]; chow-fed MLN4924-treated mice) was “appeared normal”, the plasma insulin ([5]; chow-fed mice) was “did not affect plasma insulin” and the “alanine aminotransferase (ALT) elevation” value ([5]; chow-fed mice, 9 weeks) was “did not cause alanine aminotransferase (ALT) elevation”. For the same compound, the hypoglycemia ([5]; chow-fed mice, intervention for 9 weeks) was “without causing undesirable hypoglycemia”, the “hepatic glucose 6-phosphatase (G6Pase) gene” value ([5]; chronic MLN4924) was “decreased hepatic gluconeogenic gene glucose 6-phosphatase (G6Pase)” and the “liver pyruvate kinase (L-PK) gene” value ([5]; chronic MLN4924) was “downregulation of liver pyruvate kinase (L-PK)”. The “hepatic IRS protein” value [5, 6] was “increased IRS protein”, the hepatic cullin neddylation [5, 6] was “decreased hepatic cullin neddylation” and the “hepatic downstream AKT activation” value [5, 6] was “increased IRS protein and downstream AKT activation”. The tolerability / hepatotoxicity ([5]; chronic MLN4924, 9 weeks) was “well tolerated and did not cause hepatotoxicity”.
